Reference: patent US12409206B2, “Use of cyclosporine analogues for treating fibrosis” (Hepion Pharmaceuticals, Inc., priority 2020, dated 2025)

Assays:
[1] = tested on: human precision cut liver slices (PCLS); experiment: PCLS RNA-Seq, Stimulation Protocol: TGFb/PDGF+CRV vs TGFb/PDGF+Vehicle; format: cell-based; details: for log2FoldChange: TGFb/PDGF+CRV vs TGFb/PDGF+Vehicle; for fold change in RNA: presence of exogenous TGFβ+PDGF-BB, universal in all donors
Protocol: PCLS were obtained from 5 human donors who underwent resection of liver cancer. Replicate slices were collected from healthy margins of the resections and cultured for 4 or 6 days depending on the experimental protocol. In the Nonstimulation Protocol slices were cultured for 6 days and treated for the entire period with DMSO vehicle or 5 μM CRV431. In the Stimulation Protocol slices were rested for 1 day and then administered the cytokines, TGFβ and PDGF-BB, for 3 days to stimulate inflammation and fibrosis. DMSO vehicle, CRV431 (1 and 5 μM), Alk5i (10 μM), obeticholic acid (5 μM), elafibranor (5 μM), resmetirom ([…]), and Aramchol (5 μM) were administered individually as drug treatments in the Stimulation Protocol concurrent with TGFβ+PDGF-BB. Culture medium treatments were replaced daily.
Four types of evaluations were conducted on the PCLS: (a) secretion of inflammation and fibrosis biomarkers into the culture medium, (b) histological staining and quantitation of Sirius red as a measure of tissue fibrosis, (c) gene expression of inflammation and fibrosis biomarkers by RT-PCR, and (d) RNA sequencing (RNA-Seq) of the complete transcriptome. Each of the four types of evaluation is described below: • (a) Biomarker secretion. Spent culture medium was collected daily from duplicate slices for each treatment. ELISAs were used to quantify secretion of monocyte chemoattractant protein (MCP-1), interleukin-6 (IL-6), tissue inhibitor of metalloproteinase-1 (TIMP1), hyaluronic acid, fibronectin, and collagen 1α1. For each donor the mean level of biomarker secretion in each treatment group was expressed as a percentage change relative to DMSO vehicle, the percentages averaged for all donors, and finally the mean daily percentage change calculated from all days of evaluation. Results are shown in FIG. 8A (secreted markers-% daily average change). • (b) Sirius red histological staining. […] Sirius red was quantified morphometrically in the histological sections as the percentage area with Sirius red staining in 10 sections from each treatment. In the Nonstimulation Protocol the quantity of Sirius red staining was expressed relative to the vehicle group. In the Stimulation Protocol the quantity of Sirius red staining was expressed relative to nonstimulated PCLS (0%) and TGFβ+PDGF-BB-stimulated+vehicle PCLS (100%). Results are shown in FIG. 8B (Sirius red staining for tissue fibrosis). • (c) Gene expression by RT-PCR. RNA was isolated from duplicate liver slices per treatment at the end of the experiments and evaluated by RT-PCR for 5 markers of inflammation and fibrosis: MCP-1, IL-6, TIMP1, αSMA, and collagen 1α1. β actin was used as a reference gene to calculate relative levels of each target gene RNA. […] Results are shown in FIG. 8C (gene expression by RT-PCR). • (d) Gene expression by RNA-Seq. RNA sequencing of the complete transcriptome (30 million reads per sample) was conducted on vehicle and 5 μM CRV431 treatment groups from 3 donors both from the Nonstimulation and Stimulation Protocols. Data were analyzed by bioinformatics software programs to identify genes that were differentially expressed between vehicle and CRV431 treatments.
For the evaluation done for (d), 12 samples corresponding to 3 different donor slides which underwent 4 different treatments were studied. the comparisons carried out in this analysis are: (1) TGFb/PDGF+CRV vs TGFb/PDGF+Vehicle (V), and (2) Non-stimulated+CRV vs Non-stimulated+Vehicle. […] Table 1. Samples for evaluation (d)
Quality Control check was performed in all samples. All samples had more than 30 million reads and a quality score average >35 for almost all the bases in the sequences. The duplication levels are expected as it is RNA sequencing, and different copies of the same RNA are expected to be present in the samples. All samples had good amount of reads and quality, therefore all samples passed the QC checked and were included in the analysis. […]

[2] = tested on: experimental models of NASH; details: cited from earlier work
[3] = tested on: human precision cut liver slices (PCLS); experiment: PCLS RNA-Seq, general statements (protocol not stated); format: cell-based
Protocol: PCLS were obtained from 5 human donors who underwent resection of liver cancer. Replicate slices were collected from healthy margins of the resections and cultured for 4 or 6 days depending on the experimental protocol. In the Nonstimulation Protocol slices were cultured for 6 days and treated for the entire period with DMSO vehicle or 5 μM CRV431. In the Stimulation Protocol slices were rested for 1 day and then administered the cytokines, TGFβ and PDGF-BB, for 3 days to stimulate inflammation and fibrosis. […]
Four types of evaluations were conducted on the PCLS: (a) secretion of inflammation and fibrosis biomarkers into the culture medium, (b) histological staining and quantitation of Sirius red as a measure of tissue fibrosis, (c) gene expression of inflammation and fibrosis biomarkers by RT-PCR, and (d) RNA sequencing (RNA-Seq) of the complete transcriptome. […] ELISAs were used to quantify secretion of monocyte chemoattractant protein (MCP-1), interleukin-6 (IL-6), tissue inhibitor of metalloproteinase-1 (TIMP1), hyaluronic acid, fibronectin, and collagen 1α1. For each donor the mean level of biomarker secretion in each treatment group was expressed as a percentage change relative to DMSO vehicle, the percentages averaged for all donors, and finally the mean daily percentage change calculated from all days of evaluation. […]

In the case of `CC[C@@H]1NC(=O)[C@H]([C@H](O)[C@H](C)CCCCCCNC(C)=O)N(C)C(=O)[C@H](C(C)C)N(C)C(=O)[C@H](CC(C)C)N(C)C(=O)[C@H](CC(C)C)N(C)C(=O)[C@@H](C)NC(=O)[C@H](C)NC(=O)[C@H](CC(C)C)N(C)C(=O)[C@H](C(C)C)NC(=O)[C@H](CC(C)C)N(C)C(=O)[C@@H](C)N(C)C1=O` [CRV431], the log2FoldChange ([1]; gene LIMS3) is reported as −1.705, the log2FoldChange ([1]; gene LOXL2) is reported as −0.948 and the “fold change in RNA” value ([1]; gene LOXL2) is reported as −1.9 fold. The log2FoldChange ([1]; gene MCAM) was −0.841, the log2FoldChange ([1]; gene MEF2C) was −1.013 and the log2FoldChange ([1]; gene MEG3) was −0.853. It also gave a log2FoldChange ([1]; gene MRC2) of −0.773, a log2FoldChange ([1]; gene MROH2A) of 3.641 and a log2FoldChange ([1]; gene MT-CO1) of −0.85. For the same compound, the log2FoldChange ([1]; gene NID2) was −0.755, the log2FoldChange ([1]; gene NXPH4) was −0.808 and the log2FoldChange ([1]; gene PAN2) was 1.019. The log2FoldChange ([1]; gene PANK3) was 0.687, the log2FoldChange ([1]; gene PCDH12) was −0.741 and the log2FoldChange ([1]; gene PHF8) was 0.709. The log2FoldChange ([1]; gene PKLR) was 2.127, the log2FoldChange ([1]; gene PLXNA2) was 1.326 and the log2FoldChange ([1]; gene POU6F1) was −1.716. For the same compound, the log2FoldChange ([1]; gene PPP1R16B) was −1.016, the log2FoldChange ([1]; gene RALGPS2) was 0.836 and the log2FoldChange ([1]; gene RBMXL1) was −8.265. For the same compound, the log2FoldChange ([1]; gene RCCD1) was −1.838, the “fold change in RNA” value ([1]; gene RCCD1) was −3.6 fold and the log2FoldChange ([1]; gene RHCG) was −0.927. The log2FoldChange ([1]; gene RPS7P1) was 2.668, the log2FoldChange ([1]; gene SLC4A8) was −2.641 and the log2FoldChange ([1]; gene SLC26A6) was −0.692. It also gave a log2FoldChange ([1]; gene SLC39A5) of 1.92, a log2FoldChange ([1]; gene SMC5) of 0.799 and a log2FoldChange ([1]; gene STRA6) of −1.639. For the same compound, the “fold change in RNA” value ([1]; gene STRA6) was −3.1 fold, the log2FoldChange ([1]; gene TDO2) was 0.916 and the log2FoldChange ([1]; gene TMEM70) was 1.062. The log2FoldChange ([1]; gene TTYH2) was −1.114, the “fold change in RNA” value ([1]; gene UBD/FAT10) was −2.0 fold and the log2FoldChange ([1]; gene UBD) was −1.035. The log2FoldChange ([1]; gene VWA8) was 1.514, the log2FoldChange ([1]; gene ZC3H10) was 1.022 and the log2FoldChange ([1]; gene ZDHHC20) was 1.207. The log2FoldChange ([1]; gene ZNF461) was 1.391, the “hepatocellular carcinoma tumor burden” value [2] was “can reduce” and the “liver fibrosis arising from non-alcoholic steatohepatitis” value [2] was “can reduce”. For the same compound, the “expression of many fibrosis-related genes (more than 10 collagen genes, collagen hydroxylases and oxidases, ACTA2, VEGF, TIMPs)” value [3] was “decreased expression”.
